Patent US6702803B2, “Multi-step drug dosage forms” (Delsys Pharmaceutical Corporation, priority 2000, dated 2004)

Assay: Compatibility study of Drug A with polymeric films (chromatographic purity on storage)
Type: physicochemical
Details: HPMC film, HPMC/HPC blend film, polyvinyl alcohol film; 25°C/60% RH, 40°C/75% RH (closed and open bottle), 50°C; 2 to 12 weeks
Experimental: Compatibility studies were conducted to assess the compatibility of Drug A with several polymeric films, to determine an appropriate material for the substrate. The films studied were an HPMC film, an. HPMC/HPC blend film, and a polyvinyl alcohol film. Each film was cut into pieces approximately 0.5 cm square and a piece of each film was placed into a glass bottle. Approximately 500 mg of Drug A was added to each bottle. The bottles were closed with Teflon lined plastic caps. Bottles of Drug A and each of the films separately were prepared and used as controls. The controls and drug/polymer samples were stored in a closed chamber under the following conditions, and tested at the indicated time periods: A) 25° C.±2° C.; 60% RH±5%; tested at 2,4 and 12 weeks; B) 40° C.±2° C.; 75% RH±5%; tested at 2,4 and 12 weeks; C) 40° C.±2 S^C; 75% RH±5%, open bottle; tested at 2, 4 and 12 weeks; and D) 50° C.±2*C.; no humidity control; tested at 2,4, and 8 weeks. At each time point, the samples were tested for chromatographic purity. […] Several dosage forms were made, as outlined in Table 1. “ER” refers to the extended release portion. “HPMC, HPC” refers to a hydroxypropyrmethyl cellulose, hydroxypropyl cellulose copolymer. “PEO” refers to a polyethylene oxide polymer, “HPMC, PEG” refers to hydroxypropylmethyl cellulose containing polyethylene glycol (PEG) plasticizer.

change in chromatographic purity of Drug A stored with polymer films, compared to control samples: no changes in purity
Compound: Cc1nccn1CC1CCc2c(c3ccccc3n2C)C1=O (stereo not shown) [Drug A, 1,2,3,9-tetrahydro-9-methyl-3-[(2-methyl-1H-imidazol-1-yl)methyl]-4H-carbazol-4-one]
